Tested on: C5a-induced chemotaxis of PMN
Assay: Inhibition of C5a-induced chemotaxis of human PMNs (microchamber)
Assay type: cell-based
Conditions: compound C = 10^−6 M, C5a 10^−9 M, 60 min at 37° C.
Protocol: The compounds of the invention of formula (I) were evaluated in vitro for their ability to inhibit chemotaxis of polymorphonucleate leukocytes (hereinafter referred to as PMNs) and monocytes induced by the fractions of the complement C5a and C5a-desArg. For this purpose, to isolate the PMNs from heparinized human blood, taken from healthy adult volunteers, mononucleates were removed by means of sedimentation on dextran (according to the procedure disclosed by W. J. Ming et al., J. Immunol., 138, 1469, 1987) and red blood cells by a hypotonic solution. The cell vitality was calculated by exclusion with Trypan blue, whilst the ratio of the circulating polymorphonucleates was estimated on the cytocentrifugate after staining with Diff Quick.
Human recombinant fractions C5a and C5a-desArg (Sigma) were used as stimulating agents in the chemotaxis experiments, giving practically identical results.
The lyophilized C5a was dissolved in a volume of HBSS containing 0.2% bovin serum albumin BSA so thus to obtain a stock solution having a concentration of 10^−5 M to be diluted in HBSS to a concentration of 10^−9 M, for the chemotaxis assays.
In the chemotaxis experiments, the PMNs were incubated with the compounds of the invention of formula (I) for 15′ at 37° C. in an atmosphere containing 5% CO2.
The chemotactic activity of the C5a was evaluated on human circulating polymorphonucleates (PMNs) resuspended in HBSS at a concentration of 1.5×10^6 PMNs per mL.
During the chemotaxis assay (according to W. Falket et al., J. Immunol. Methods, 33, 239, 1980) PVP-free filters with a porosity of 5 μm and microchambers suitable for replication were used.
The compounds of the invention in formula (I) were evaluated at a concentration ranging between 10^−6 and 10^−10 M; for this purpose they were added, at the same concentration, both to the lower pores and the upper pores of the microchamber. The wells in the lower part contain the solution of C5a or the simple carrier, those in the upper part contain the suspension of PMNs.
Inhibition of C5a-induced chemotactic activity by the individual compounds of the invention of formula (I) was evaluated by incubating the microchamber for the chemotaxis for 60 min at 37° C. in an atmosphere containing 5% CO2.
By way of example, the inhibition data of the chemotaxis of PMN (C=10^−6 M) of some representative compounds of the invention are reported in the following table: […]

Molecule	inhibition at 1 µM (Homo sapiens, 1 h)	% INHIBITION (C = 10^−6 M)
C[C@@H](C(=O)NCCC[N+](C)(C)C)c1ccccc1Nc1c(Cl)cccc1Cl [(R)-{3-{2-[2-(2,6-dichlorophenylamino)-phenyl]-propionylamino}-propyl)-trimethylammonium iodide]	62 ± 3%	–
CC(C)Cc1ccc([C@@H](C)C(=O)NCCC[N+]2(C)CCCCC2)cc1.[I-] [R(−)-{3-[2-(4′-isobutylphenyl)-propionylamino]-propyl}-1-methyl-piperidinium iodide]	–	24 ± 4%
CC(C)Cc1ccc([C@@H](C)C(=O)NCCC[N+](C)(C)Cc2ccccc2)cc1.[I-] [R(−)-{3-[2-(4′-isobutylphenyl)-propionylamino]-propyl}-(N-benzyl)-N,N-dimethylammonium iodide]	–	22 ± 4%
CC(C)Cc1ccc([C@@H](C)C(=O)NCCC[N+](C)(C)CC2CCCCC2)cc1.CS(=O)(=O)[O-] [R(−)-{3-[2-(4′-isobutylphenyl)-propionylamino]-propyl}-N-cyclohexylmethyl-N,N-dimethyl-ammonium metaneosulfonate]	–	57 ± 4%
CC(C)Cc1ccc([C@@H](C)C(=O)NCCC[N+](C)(C)C)cc1.[I-] [R(−)-{3-[2-(4′-isobutylphenyl)-propionylamino]-propyl}-trimetilammonium iodide]	–	53 ± 6%
R(−)-2-[(4′-isobutylphenyl)-propionylamino]-1,1-dimethylpiperidinium iodide	–	18 ± 9%

— patent US7026510B2, “Quaternary ammonium salts of omega-aminoalkylamides of r-2-aryl-propionic acids and pharmaceutical compositions containing them” (Dompé S.p.A., priority 2001, dated 2006)
